From patent US10206400B2, “Insecticidal compounds based on isoxazoline derivatives” (Syngenta Crop Protection LLC, priority 2009, dated 2019)

How the values were obtained:
Type in all cases: in vivo
[1] = system: Spodoptera littoralis; test: Spodoptera littoralis (Egyptian cotton leafworm) leaf disc spray test; conditions: foliar, 72 h, 200 ppm spray on cotton leaf discs, L1 larvae, mortality, feeding behavior, growth regulation 3 days after treatment
Text: Cotton leaf discs were placed on agar in a 24-well microtiter plate and sprayed with test solutions at an application rate of 200 ppm. After drying, the leaf discs were infested with 5 L1 larvae. The samples were checked for mortality, feeding behavior, and growth regulation 3 days after treatment (DAT).

[2] = system: Heliothis virescens; test: Heliothis virescens (tobacco budworm) egg/artificial diet test; conditions: 96 h, 200 ppm (concentration in well 18 ppm), eggs 0-24 h old on artificial diet, 4 days, egg mortality, larval mortality, growth regulation
Protocol: Eggs (0-24 h old) were placed in 24-well microtiter plate on artificial diet and treated with test solutions at an application rate of 200 ppm (concentration in well 18 ppm) by pipetting. After an incubation period of 4 days, samples were checked for egg mortality, larval mortality, and growth regulation.

[3] = system: Plutella xylostella; test: Plutella xylostella (diamond back moth) artificial diet test; conditions: 144 h, 200 ppm (concentration in well 18 ppm), L2 larvae, 6 days, larval mortality, growth regulation
Protocol: (§1) 24-well microtiter plate (MTP) with artificial diet was treated with test solutions at an application rate of 200 ppm (concentration in well 18 ppm) by pipetting. After drying, the MTP's were infested with L2 larvae (7-12 per well). After an incubation period of 6 days, samples were checked for larval mortality and growth regulation.

[4] = system: Diabrotica balteata; test: Diabrotica balteata (corn root worm) artificial diet test; conditions: 120 h, 200 ppm (concentration in well 18 ppm), L2 larvae, 5 days, larval mortality, growth regulation
Protocol: as §1, with “A 24-well” for “24-well”, “(6-10” for “(7-12”, “5” for “6”

[5] = system: Myzus persicae; test: Myzus persicae (green peach aphid), systemic test; conditions: 144 h, roots of infested pea seedlings in test solution, 6 days, mortality, special effects on the plant
Text: Myzus persicae (Green peach aphid), systemic test: Roots of pea seedlings, infested with an aphid population of mixed ages, are placed directly in the test solutions at an application rate of 12.5 ppm. 6 days after introduction, samples are checked for mortality and special effects on the plant. The following compounds gave at least 80% control of Myzus persicae: A3, B2, B3, B5, B6, B7, B8, B11, B12, C1, C2, C3,C4, C5, C6, C7, D1, E1, E2, G1, G3, G5, G6, H1, H5, H6, H9, H10, H11, H12, H13, H14, H18, H19, H20, H24, H25, and H26.

[6] = system: Thrips tabaci; test: Thrips tabaci (onion thrips) leaf disc spray test; conditions: foliar, 168 h, 200 ppm spray on sunflower leaf discs, mixed ages, 7 days, mortality
Protocol: [The procedure below names another target; the source lists this target under the same test.] Sunflower leaf discs were placed on agar in a 24-well microtiter plate and sprayed with test solutions at an application rate of 200 ppm. After drying, the leaf discs were infested with an […] population of mixed ages. After an incubation period of 7 days, samples were checked for mortality.

[7] = system: Tetranychus urticae; test: Tetranychus urticae (two-spotted spider mite) leaf disc spray test; conditions: foliar, 192 h, 200 ppm spray on bean leaf discs, mixed ages, 8 days, egg, larval and adult mortality
Text: Bean leaf discs on agar in 24-well microtiter plates were sprayed with test solutions at an application rate of 200 ppm. After drying, the leaf discs are infested with mite populations of mixed ages. 8 days later, discs are checked for egg mortality, larval mortality, and adult mortality.

CCN1OC[C@@H](NC(=O)c2ccc(C3=NO[C@@](c4cc(Cl)cc(Cl)c4)(C(F)(F)F)C3)cc2C)C1=O [Compound G1, 4-[5-(3,5-dichloro-phenyl)-5-(S)-trifluoromethyl-4,5-dihydro-isoxazol-3-yl]-2-methyl-N—((R)-2-ethyl-3-oxo-isoxazolidin-4-yl)-benzamide]
≥ 80%: pest or weed control at 200 ppm [1] | pest or weed control at 200 ppm [2] | pest or weed control at 200 ppm [3] | pest or weed control at 200 ppm [4] | pest or weed control at 12.5 ppm [5] | pest or weed control at 200 ppm [6] | pest or weed control at 200 ppm [7]

CCN1OC[C@H](NC(=O)c2ccc(C3=NO[C@@](c4cc(Cl)cc(Cl)c4)(C(F)(F)F)C3)cc2C)C1=O [Compound G3, 4-[5-(3,5-dichloro-phenyl)-5-(S)-trifluoromethyl-4,5-dihydro-isoxazol-3-yl]-2-methyl-N—((S)-2-ethyl-3-oxo-isoxazolidin-4-yl)-benzamide]
≥ 80%: pest or weed control at 200 ppm [1] | pest or weed control at 200 ppm [2] | pest or weed control at 200 ppm [3] | pest or weed control at 200 ppm [4] | pest or weed control at 12.5 ppm [5] | pest or weed control at 200 ppm [6] | pest or weed control at 200 ppm [7]

Cc1cc(C2=NO[C@@](c3cc(Cl)cc(Cl)c3)(C(F)(F)F)C2)ccc1C(=O)N[C@@H]1CON(CC(F)F)C1=O [Compound G5, 4-[5-(3,5-Dichloro-phenyl)-5-(S)-trifluoromethyl-4,5-dihydro-isoxazol-3-yl]-2-methyl-N—((R)-2-(2,2-difluoroethyl)-3-oxo-isoxazolidin-4-yl)-benzamide]
≥ 80%: pest or weed control at 200 ppm [1] | pest or weed control at 200 ppm [2] | pest or weed control at 200 ppm [3] | pest or weed control at 200 ppm [4] | pest or weed control at 12.5 ppm [5] | pest or weed control at 200 ppm [6] | pest or weed control at 200 ppm [7]
